Reference: patent US11007269B2, “P53 degradation inducing molecule and pharmaceutical composition” (Tokyo University of Science Foundation, priority 2016, dated 2021)

Biological target: T1, MDM2 protein (Homo sapiens, UniProt Q00987)
T1 construct: endogenous in cells; host or cells: HCT116
Assay: Western blot of endogenous MDM2 protein degradation (knockdown) in HCT116 cells
Format: cell-based
Settings: 48 hours after addition, vs DMSO control
Description: In Example 2, degradation (knockdown) of an endogenous wild-type p53 protein and MDM2 protein in HCT116 cells (human large intestinal cancer cells) to which TIBC-CANDDY_MLN had been added was evaluated by Western blot analysis.
HCT116 cells were seeded in a 24-well plate at a cell density of 8×10^4 cells/well, and then cultured under conditions of 37° C. and 5 vol % CO2 for 16 hours.
After 16 hours from cell seeding, TIBC-CANDDY_MLN or TIBC was added to HCT116 cells as follows. As a medium, a serum-free medium (37° C.) in which 1 mass % L-glutamine solution (Sigma-Aldrich) was added to D-MEM (high D-glucose, phenol red, sodium pyruvate (Wako Pure Chemical Industries, Ltd.)) was used. It is noted that the L-glutamine solution was added immediately before use. […]
After electrophoresis, proteins were transferred to a PVDF membrane (Immobion™-P, Millipore) under conditions of 100 V and 2 hours using a tank-type blotting device and a transfer buffer (25 mM Tris-HCl, 195 mM glycine, 0.01% SDS, 15% methanol). […] Subsequently, the membrane was treated with a chemiluminescence reagent Immobilon™ Western (Millipore), and then chemiluminescence was detected using a lumino image analyzer LAS-3000 (FUJIFILM Corporation).

T1 sequence (Q00987 whole entry): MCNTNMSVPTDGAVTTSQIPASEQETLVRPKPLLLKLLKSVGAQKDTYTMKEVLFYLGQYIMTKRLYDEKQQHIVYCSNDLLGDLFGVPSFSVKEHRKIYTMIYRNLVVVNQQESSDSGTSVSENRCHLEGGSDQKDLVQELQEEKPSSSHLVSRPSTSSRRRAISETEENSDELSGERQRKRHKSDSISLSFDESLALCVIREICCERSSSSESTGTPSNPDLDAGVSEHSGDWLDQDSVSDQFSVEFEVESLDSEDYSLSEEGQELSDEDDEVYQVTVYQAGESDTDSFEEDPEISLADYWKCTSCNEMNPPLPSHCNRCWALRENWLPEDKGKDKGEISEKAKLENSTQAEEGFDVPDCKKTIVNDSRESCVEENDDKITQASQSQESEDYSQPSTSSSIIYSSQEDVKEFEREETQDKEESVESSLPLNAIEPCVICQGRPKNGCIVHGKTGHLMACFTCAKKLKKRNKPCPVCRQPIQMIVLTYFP

amount of the endogenous MDM2 protein (Western blot): reduced
SMILES: CC(C)C[C@H](NC(=O)CNC(=O)c1cc(Cl)ccc1Cl)C(=O)NCCCCCCC(=O)Nc1ccc(C(=O)/C=C/c2ccc(I)cc2)cc1 [TIBC-CANDDY_MLN]
